{"source": "paper PMC2914114", "about": "(Molecular pharmaceutics, 2010)", "key": {"[1]": {"settings": "calculated from Stokes-Einstein equation for equivalent spheres; cited from earlier work"}, "Permeability": {"experiment": "Permeability", "settings": "human, pH 7.4"}}, "data": [{"smiles": "OC[C@@H](O)[C@@H](O)[C@H](O)[C@H](O)CO", "note": "[[^14C] Mannitol, Mannitol]", "values": [{"measurement": "Molecular Radius", "setting": "[1]", "result": 4.10, "unit": "Å"}, {"measurement": "Papp at 2 h, 0.25 µCi/mL", "setting": "Permeability", "result": "247 ± 2", "unit": "nm/s"}]}, {"smiles": "NC(N)=O", "note": "[[^14C] Urea, Urea]", "values": [{"measurement": "Molecular Radius", "setting": "[1]", "result": 2.67, "unit": "Å"}, {"measurement": "PM (permeability across the monolayer itself)", "setting": "hCMEC/D3 cells; pH 7.4", "result": "5.65 ± 0.08 × 10^−5 cm/sec"}]}, {"smiles": "CC(C)[C@H](N)C(=O)OCCOCn1cnc2c(=O)[nH]c(N)nc21", "note": "[valacyclovir]", "values": [{"measurement": "A-B versus B-A relative permeability (PM)", "setting": "hCMEC/D3 cells", "result": "no differences between the A-B and B-A relative permeabilities"}]}]}
